Experimental data from patent US12239643B2, “Therapeutic agent for inflammatory diseases, autoimmune diseases, fibrotic diseases, and cancer diseases” (MEIJI SEIKA PHARMA CO., LTD., priority 2018, dated 2025).
Where two headings read alike, the source gives them in different places.

Experiments:
TNFα [1] = test: Cytokine suppression using whole human blood: TNFα (lipopolysaccharide stimulus); assay type: cell-based; conditions: human whole blood, read-out: TNFα Inhibitory Activity, Human Whole Blood (Test Example 3)
Protocol: The test compound dissolved in dimethyl sulfoxide was added to a 96-well plate, and RPMI-1640 medium and human peripheral blood containing sodium heparin were added, followed by culture at 37° C. under 5% CO2 for 1 hour. A medium containing only dimethyl sulfoxide instead of the test compound was added to the control well. To each well, lipopolysaccharide (final concentration 10 ng/mL) as a TNFα production stimulant, or phytohaemagglutinin (final concentration 20 μg/mL) as an IL-17A production stimulant, or CytoStim reagent ( 1/100 concentration) and CD28 antibody (final concentration 2.5 ng/mL) as an IL-4 production stimulant and an IL-5 production stimulant were added, followed by culture at 37° C. under 5% CO2. The culture was carried out for about 18 hours for the evaluation of the amount of TNFα, and for about 48 hours for the evaluation of the amounts of IL-17A, IL-4, and IL-5.
After collecting the culture supernatant after culturing, the amount of each cytokine was measured by the sandwich ELISA method. The cytokine production suppression rate (inhibition rate) by the test compound was calculated by the following formula from the cytokine production amount when the test compound was added, with the cytokine production amount for the control well as 100%. Inhibition Rate={1−(Cytokine Amount at Addition of Each Test Compound)/(Cytokine Amount for Control Well)}×100
In addition, the cytokine inhibitory activity (concentration for the inhibition rate of 50%) of the test compound was calculated from the inhibition curves based on the inhibition rates for various concentrations of the test compound.
The measurement results obtained by measuring the TNFα inhibitory activity and IL-5 inhibitory activity (50% inhibitory concentration) of the test compounds by the above method were evaluated in accordance with the following evaluated basis; A: less than 100 nM, B: 100 nM or more and less than 500 nM, and C: 500 nM or more. In addition, the measurement results obtained by measuring the IL-17A inhibitory activity and IL-4 inhibitory activity (50% inhibitory concentration) of the test compounds were evaluated in accordance with the following evaluated basis; A: less than 500 nM, B: 500 nM or more and less than 5000 nM, and C: 5000 nM or more.

[2] = test system: oxazolone-induced auricle edema, BALB/c mice; test: Hapten repeated application mouse chronic dermatitis model (oral, topical); assay type: in vivo; conditions: oral, 0.3 to 10 mg/kg twice a day for 10 days
Protocol: Evaluation was carried out using female BALB/c mice (7 to 8 weeks of age). First, the hair of the abdomen of the mice was treated with a hair clipper, and then 150 μL of a 3% oxazolone acetone/ethanol solution was applied to the abdomen as a hapten. One week later, 20 μL/ear of 1% oxazolone acetone/ethanol solution was applied to the outer surface of the auricle of both ears of the mice 3 times/week to induce inflammation. A 1% oxazolone-acetone/ethanol solution was applied every other day for 10 days from 1 week after the start of inflammation induction. In addition, for 10 days from 1 week after the start of inflammation induction, the test compound suspended in 0.5% w/v methylcellulose (0.5% MC) was orally administered at 0.3 to 10 mg/kg twice a day (10 μL/g), or 20 μL of a 0.3 to 3% test compound dissolved in an acetone/ethanol solution was applied once or twice a day (topical administration). A 1% oxazolone was not applied to the blank. The control was one in which 1% oxazolone was applied and only 0.5% MC was orally administered without using the test compound, or only an acetone/ethanol solution was applied.
After administration for 10 days, auricle thickness was measured using a dial thickness gauge, and the changes in auricular thickness before the treatment (immediately before the start of administration of the test compound) and after the treatment (after the administration of the test compound for 10 days) were used to calculate the edema suppression rate by the following formula. Edema Suppression Rate (%)={1−(Auricle Thickness After Treatment by Test Compound−Auricle Thickness Before Treatment by Test Compound)/(Auricle Thickness After Treatment of Control−Auricle Thickness Before Treatment of Control)}×100
The measurement results obtained by measuring the edema suppression rate at the time of oral administration of each test compound by the above method were evaluated in accordance with the following evaluated basis; A: 70% or more, B: 40% or more and less than 70%, and C: less than 40%. In addition, the measurement results obtained by measuring the edema suppression rate at the time of topical administration of each test compound were evaluated in accordance with the following evaluated basis; A: 100% or more, B: 70% or more and less than 100%, and C: less than 70%.

PDE4 = test: Evaluation of PDE4 inhibitory activity, scintillation proximity assay; assay type: biochemical; conditions: for PDE4 inhibitory activity: summary in words of Tables 57 to 69
Outline: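 SPA with [2,8-3H]-cAMP and diluted PDE4 enzyme preparation in 50 mM Tris-HCl pH 7.4, 8.3 mM MgCl2, 1.7 mM EGTA, 3 mg/mL BSA, 120 min at room temperature. Product captured on ZnSO4-containing YSi-SPA beads, scintillation counted; IC50 from inhibition curves vs DMSO control and no-enzyme blank.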

TNFα [3] = test: Cytokine suppression using human peripheral blood mononuclear cells: TNFα; assay type: cell-based; conditions: human PBMC, lipopolysaccharide 1 ng/mL; read-out: TNFα Inhibitory Activity, Human PBMC (Test Example 4)
Protocol: First, peripheral blood mononuclear cells (PBMC) were separated from whole blood by specific gravity centrifugation. Then, the isolated peripheral blood mononuclear cells were added to RPMI-1640 medium (containing 10% fetal bovine serum, penicillin, streptomycin, L-glutamine, and 2-mercaptoethanol), and cultured in a 96-well plate at 37° C. under 5% CO2 for 0 to 1 hour. The test compound dissolved in dimethyl sulfoxide was added to each well, followed by further culture at 37° C. under 5% CO2 for 1 hour. A medium containing only dimethyl sulfoxide instead of the test compound was added to the control well. To each well, lipopolysaccharide (final concentration 1 ng/mL) as a TNFα production stimulant and an IL-23 production stimulant, or concanavalin A (final concentration 20 μg/mL) as an IL-17A production stimulant was added, followed by culture at 37° C. under 5% CO2. In addition, as IL-4 production stimulus, IL-5 production stimulus, and IL-13 production stimulus, PBMC was seeded on a 96-well plate previously coated with a CD3 antibody (final concentration 3 μg/mL), and a CD28 antibody (final concentration 5 ng/mL) was added. The culture was carried out for about 18 hours for the evaluation of the amounts of TNFα and IL-23, and about 48 hours for the evaluation of the amounts of IL-17A, IL-4, IL-5, and IL-13. After collecting the culture supernatant after culturing, the amount of each cytokine was measured by the sandwich ELISA method in the same manner as in Test Example 3, and the cytokine production suppression rate (inhibition rate) and the cytokine inhibitory activity (concentration for the inhibition rate of 50%) of each test compound were calculated.
The measurement results obtained by measuring the TNFα inhibitory activity and IL-5 inhibitory activity (50% inhibitory concentration) of the test compounds by the above method were evaluated in accordance with the following evaluated basis; A: less than 10 nM, B: 10 nM or more and less than 100 nM, and C: 100 nM or more. In addition, the measurement results obtained by measuring the IL-17A inhibitory activity, IL-23 inhibitory activity, IL-4 inhibitory activity, and IL-13 inhibitory activity (50% inhibitory concentration) of the test compounds were evaluated in accordance with the following evaluated basis; A: less than 500 nM, B: 500 nM or more and less than 5000 nM, and C: 5000 nM or more.

[4] = Hepatic metabolic stability (rat liver microsome method); assay type: in vitro ADME; conditions: rat liver microsomes 0.5 mg/mL, test substance 1 μM, NADPH 1 mM, 37° C., 30 minutes
Outline: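 Rat liver microsomes (0.5 mg/mL final) with test compound (1 μM final) in 100 mM potassium phosphate pH 7.4, 37° C; reaction started with NADPH (1 mM final) after 5 min preincubation. Acetonitrile stop at 0 and 30 min, LC-MS quantitation; % remaining = 30 min/0 min ×100, graded A ≥75%, B 60–<75%, C 45–<60%, D <45%.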

TGF-β = TGF-β inhibitory activity using THP1 cells differentiated into macrophages; assay type: cell-based; conditions: Homo sapiens, THP-1; THP1 cells differentiated into macrophages, lipopolysaccharide 1 μg/mL, about 7 hours; read-out: TFG-β Inhibitory Activity (Test Example 6)
Protocol: The TGF-β inhibitory activity was measured using THP1 cells as follows. First, THP1 cells were seeded on a 24-well culture plate at […], and culture was carried out overnight at 37° C. and 5% CO2 in RPMI-1640 medium (containing 10% fetal bovine serum, penicillin, and streptomycin) supplemented with 100 nM phorbol myristate acetate. After that, the cells were differentiated into macrophages by changing to RPMI-1640 medium without phorbol myristate acetate, followed by further culture at 37° C. under 5% CO2 overnight. Next, the THP1 culture plate was washed once with PBS(−) 1 mL/well, and then the test compound and lipopolysaccharide (final concentration 1 μg/mL) were added, followed by culture at 37° C. under 5% CO2 for about 7 hours. After culturing, the entire amount of the medium was collected, and the amount of TGF-β in the centrifuged supernatant was quantified by the sandwich ELISA method. The non-addition of lipopolysaccharide was used as a blank, and the control was obtained by adding only dimethyl sulfoxide instead of the test compound, and the inhibition rate of the test compound against the control was calculated by the following formula. Inhibition Rate (%)={1−(Value at Addition of Each Test Compound−Blank Value)/(Control Value−Blank Value)}×100
In addition, the TGF-β inhibitory activity (concentration for the inhibition rate of 50%) of the test compound was calculated from the inhibition curves based on the inhibition rate for various concentrations of the test compound.
The measurement results obtained by measuring the TFG-β inhibitory activity (50% inhibitory concentration) of the test compounds by the above method were evaluated in accordance with the following evaluated basis; A: less than 1 μM, and B: 1 μM or more.

[5] = finer grading of compounds rated A in Evaluation 1, read-out: PDE4 Inhibitory Activity (Evaluation 2)
[6] = scintillation proximity assay, class symbols of Evaluation 1, read-out: PDE4 Inhibitory Activity (concentration for the inhibition rate of 50%, IC50), Evaluation 1
[7] = scintillation proximity assay, read-out: PDE4 Inhibitory Activity (Evaluation 1; concentration for the inhibition rate of 50%)

Compound | IC50 (TNFα [1]; Homo sapiens) [nM] | Mouse Chronic Dermatitis Model (Test Example 8), Oral: edema suppression rate [2] | IC50 (PDE4; [5]) [nM] | IC50 (PDE4; [6]) [nM] | PDE4 inhibitory activity (PDE4) | IC50 (TNFα [1]) [nM] | IC50 (TNFα [3]) [nM] | Residual ratio (% remaining for 30-minute reaction) [4] | IC50 (PDE4; [7]) [nM] | IC50 (TGF-β) [nM]
OC(c1ccc(-c2nccs2)c2oc(N3CC4CCC(C3)N4)nc12)C(F)(F)F (centres unmarked) [Example 118, 1-(2-(3,8-Diazabicyclo[3.2.1]octan-3-yl)-7-(thiazol-2-yl)benzo[d]oxazol-4-yl)-2,2,2-trifluoroethan-1-ol] | 100 to 500 | B (B: 40% or more and less than 70%) | 1 to 11 | < 100 | particularly excellent |  |  |  |  | 
COC(C)(C)c1cc(-c2nccs2)c2oc(N3CC4CC(C3)N4)nc2c1C(F)(F)F [Example 176, 2-(3,6-Diazabicyclo[3.1.1]heptan-3-yl)-5-(2-methoxypropan-2-yl)-7-(thiazol-2-yl)-4-(trifluoromethyl)benzo[d]oxazole] | 100 to 500 | B (B: 40% or more and less than 70%) | 1 to 11 | < 100 | particularly excellent |  |  |  |  | 
OC(c1ccc(-c2nccs2)c2oc(N3CC4CCC(C3)N4)nc12)C(F)(F)F (centres unmarked) [Example 119, 1-(2-(3,8-Diazabicyclo[3.2.1]octan-3-yl)-7-(thiazol-2-yl)benzo[d]oxazol-4-yl)-2,2,2-trifluoroethan-1-ol] |  | A (A: 70% or more) | ≤ 1 | < 100 | particularly excellent | < 100 | < 10 |  |  | 
OCC(F)(F)Oc1ccc(-c2nccs2)c2oc(N3CC4CC(C3)N4)nc12 [Example 249, 2-((2-(3,6-Diazabicyclo[3.1.1]heptan-3-yl)-7-(thiazol-2-yl)benzo[d]oxazol-4-yl)oxy)-2,2-difluoroethan-1-ol] | < 100 | B (B: 40% or more and less than 70%) | ≤ 1 |  | particularly excellent |  |  | B (B: 60% or more and less than 75%) | < 100 | 
CC(C)(O)c1cc(-c2nccs2)c2oc(N3CC4CCC(C3)N4)nc2c1OC(F)(F)F [Example 195, 2-(2-(3,8-diazabicyclo[3.2.1]octan-3-yl)-7-(thiazol-2-yl)-4-(trifluoromethoxy)benzo[d]oxazol-5-yl)propan-2-ol] | 100 to 500 | B (B: 40% or more and less than 70%) | ≤ 1 |  | particularly excellent |  |  |  | < 100 | < 1000
COC(C)(C)c1cc(-c2nccs2)c2oc(N3CC4CCC(C3)N4)nc2c1OC(F)(F)F [Example 198, 2-(3,8-Diazabicyclo[3.2.1]octan-3-yl)-5-(2-methoxypropan-2-yl)-7-(thiazol-2-yl)-4-(trifluoromethoxy)benzo[d]oxazole] | 100 to 500 |  | ≤ 1 |  | particularly excellent |  |  |  | < 100 | 
